Measurements from patent US20200339544A1 (JOINT STOCK COMPANY "BIOCAD", priority 2017, published 2020).
Where two headings read alike, the source gives them in different places.

How the values were obtained:
[1] = Chemical stability in simulated gastric fluid (SGF); type: physicochemical; conditions: SGF without enzymes, pH 1,4; 10 μm; 2 hours at 37° C.; substance amount remaining
In short: (§1)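 Compound at 10 μm (diluted from 10 mM DMSO stock) incubated 2 h at 37° C in enzyme-free SGF, pH=1,4, or enzyme-free SIF, pH=6.5. HPLC peak areas before and after incubation give % compound remaining.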

[2] = General cytotoxicity on HepG2 cells; type: cell-based; conditions: human; general cytotoxicity, HepG2 cells, 72 hours, average of several tests
In short: (§2)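 HepG2 cells seeded at 2*10^4 cells per well and compounds added in DMEM with 2% FBS for 72 h at 37 °C. Viability read with Alamar Blue and CC50 derived as for IC50. Therapeutic index taken as HepG2 CC50 over H1975 IC50.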

HepG2 cells = experiment: General cytotoxicity on HepG2 cells; type: cell-based; conditions: therapeutic index, CC50 HepG2 / IC50 H1975
In short: as §2

[3] = tested on: H1975 (lung adenocarcinoma, DM, L828R/T790M); experiment: Antiproliferative activity on H1975 cells (Alamar Blue); type: cell-based; conditions: for IC50: Homo sapiens, NCI-H1975, H1975 cells; for SI IC50(A549)/IC50(DM): selectivity index, A549 vs H1975 cells
In short: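 IC50 was fitted with a four-parameter logistic model to Alamar Blue fluorescence (540/590 nm), read 3-5 h after dye addition. Before that, compounds acted on attached H1975 cells, 15*10^3 per well in 2% FBS RPMI-1640, for 72 h at 37 °C, DMSO no more than 1%.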

[4] = tested on: HCC827 (lung adenocarcinoma, SM, exon19delE746-A750); experiment: Antiproliferative activity on HCC827 cells (Alamar Blue); type: cell-based; conditions: Homo sapiens, antiproliferative test
In short: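 HCC827 cells (EGFR exon19del E746-A750), 10×10^3/well, attached 16–18 h, then exposed to compounds for 72 h at 37 °C in RPMI-1640 with 2% FBS, ≤1% DMSO. Viability by Alamar Blue fluorescence (ex 540/em 590 nm) after 3–5 h; IC50 by four-parameter logistic fit.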

[5] = tested on: A549 (lung adenocarcinoma, WT); experiment: Antiproliferative activity on A549 cells (Alamar Blue); type: cell-based; conditions: Homo sapiens, antiproliferative test
In short: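 Viability read by Alamar Blue fluorescence (λEx 540, λEm 590 nm) 3-5 h after dye addition, following 72 h compound treatment at 37° C in 2% FBS RPMI-1640, ≤1% DMSO. Seeding 5*10^3 cells/well, 16-18 h attachment. Four-parameter logistic model gave IC50.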

[6] = Chemical stability in simulated intestinal fluid (SIF); type: physicochemical; conditions: SIF without enzymes, pH 6.5; 10 μm; 2 hours at 37° C.; substance amount remaining
In short: as §1

[7] = average values obtained in several tests, Table 16, read-out: H1975 (DM) IC50
[8] = antiproliferative test, Table 15, read-out: IC50 H1975 (DM)

## C=CC(=O)Nc1cc(Nc2cc(C(=O)c3ccc(N(C)C)cc3)ccn2)c(OC)cc1N(C)CCN(C)C.O=C(O)C(F)(F)F [EGFR_3365_4, N-(5-((4-(4-(dimethylamino)benzoyl)pyridin-2-yl)amino)-2-((2-(dimethylamino)ethyl) (methyl)amino)-4-methoxyphenyl)acrylamide 2,2,2-trifluoroacetate]
[1]
  Stability in SGF, %: 100.0%
[2]
  CC50 at 72 h: 14800 nM
HepG2 cells
  TI, CC50/IC50: 419
[3]; [7]
  IC50: 35.3 nM
[3]; [8]
  IC50: 35.3 nM
[3]
  SI IC50(A549)/IC50(DM): 152.17
[4]
  IC50: 15.3 nM
[5]
  IC50: 5380 nM
[6]
  Stability in SIF, %: 100.0%

## C=CC(=O)Nc1cc(Nc2nccc(C(=O)c3ccc(F)cc3)n2)c(OC)cc1N(C)CCN(C)C [EGFR_3365_10, N-(2-((2-(dimethylamino)ethyl)(methyl)amino)-5-((4-(4-fluorobenzoyl)pyrimidin-2-yl)amino)-4-methoxyphenyl) acrylamide]
[1]
  Stability in SGF, %: 100.0%
[2]
  CC50 at 72 h: 30400 nM
HepG2 cells
  TI, CC50/IC50: 144
[3]; [7]
  IC50: 211 nM
[3]; [8]
  IC50: 211 nM
[3]
  SI IC50(A549)/IC50(DM): 62.70
[4]
  IC50: 5.9 nM
[5]
  IC50: 13200 nM
[6]
  Stability in SIF, %: 100.0%

## C=CC(=O)Nc1cc(Nc2nccc(C(=O)c3ccccc3Br)n2)c(OC)cc1N(C)CCN(C)C [EGFR_3365_12, N-(5-((4-(2-bromobenzoyl)pyrimidin-2-yl)amino)-2-((2-(dimethylamino)ethyl) (methyl)amino)-4-methoxyphenyl)acrylamide]
[1]
  Stability in SGF, %: 100.0%
[2]
  CC50 at 72 h: 22600 nM
HepG2 cells
  TI, CC50/IC50: 1051
[3]; [7]
  IC50: 21.5 nM
[3]; [8]
  IC50: 21.5 nM
[3]
  SI IC50(A549)/IC50(DM): 716.20
[4]
  IC50: 20.3 nM
[5]
  IC50: 15400 nM
[6]
  Stability in SIF, %: 100.0%

## C=CC(=O)Nc1cc(Nc2nccc(C(=O)c3ccc(OCc4ccccc4)cc3)n2)c(OC)cc1N(C)CCN(C)C [EGFR_3365_16, N-(5-((4-(4-(benzyloxy)benzoyl)pyrimidin-2-yl)amino)-2-((2-(dimethylamino)ethyl)(methyl)amino)-4-methoxyphenyl)acrylamide]
[1]
  Stability in SGF, %: 100.0%
[2]
  CC50 at 72 h: 5790 nM
HepG2 cells
  TI, CC50/IC50: 108
[3]; [7]
  IC50: 53.7 nM
[3]; [8]
  IC50: 53.7 nM
[3]
  SI IC50(A549)/IC50(DM): 41.10
[4]
  IC50: 10 nM
[5]
  IC50: 2210 nM
[6]
  Stability in SIF, %: 100.0%

## C=CC(=O)Nc1cc(Nc2nccc(C(=O)c3ccc(Oc4ccccc4)cc3)n2)c(OC)cc1N(C)CCN(C)C [EGFR_3365_17, N-(2-((2-(dimethylamino)ethyl)(methyl)amino)-4-methoxy-5-((4-(4-phenoxybenzoyl)pyrimidin-2-yl)amino)phenyl)acrylamide]
[1]
  Stability in SGF, %: 100.0%
[2]
  CC50 at 72 h: 6320 nM
HepG2 cells
  TI, CC50/IC50: 16
[3]; [7]
  IC50: 393 nM
[3]; [8]
  IC50: 394 nM
[3]
  SI IC50(A549)/IC50(DM): 6.08
[4]
  IC50: 41.3 nM
[5]
  IC50: 2390 nM
[6]
  Stability in SIF, %: 98.8%

## C=CC(=O)Nc1cc(Nc2nccc(C(=O)c3ccc(OC)cc3)n2)c(OC)cc1N(C)CCN(C)C [EGFR_3365_28, N-(2-((2-(dimethylamino)ethyl)(methyl)amino)-4-methoxy-5-((4-(4-methoxybenzoyl)pyrimidin-2-yl)amino)phenyl)acrylamide]
[1]
  Stability in SGF, %: 100.0%
[2]
  CC50 at 72 h: 31400 nM
HepG2 cells
  TI, CC50/IC50: 1836
[3]; [7]
  IC50: 17.1 nM
[3]; [8]
  IC50: 17.1 nM
[3]
  SI IC50(A549)/IC50(DM): 213.04
[4]
  IC50: 15.3 nM
[5]
  IC50: 3640 nM
[6]
  Stability in SIF, %: 100.0%

## C=CC(=O)Nc1cc(Nc2nccc(C(=O)c3ccc(OCC)cc3)n2)c(OC)cc1N(C)CCN(C)C [EGFR_3365_29, N-(2-((2-(dimethylamino)ethyl)(methyl)amino)-5-((4-(4-ethoxybenzoyl)pyrimidin-2-yl)amino)-4-methoxyphenyl) acrylamide]
[1]
  Stability in SGF, %: 98.1%
[2]
  CC50 at 72 h: 30600 nM
HepG2 cells
  TI, CC50/IC50: 1135
[3]; [7]
  IC50: 26.9 nM
[3]; [8]
  IC50: 26.9 nM
[3]
  SI IC50(A549)/IC50(DM): 595.06
[4]
  IC50: 6.2 nM
[5]
  IC50: 16000 nM
[6]
  Stability in SIF, %: 100.0%

## C=CC(=O)Nc1cc(Nc2nccc(C(=O)c3ccc(OCCC)cc3)n2)c(OC)cc1N(C)CCN(C)C [EGFR_3365_30, N-(2-((2-(dimethylamino)ethyl)(methyl)amino)-4-methoxy-5-((4-(4-propoxybenzoyl)pyrimidin-2-yl)amino)phenyl)acrylamide]
[1]
  Stability in SGF, %: 100.0%
[2]
  CC50 at 72 h: 10900 nM
HepG2 cells
  TI, CC50/IC50: 666
[3]; [7]
  IC50: 16.4 nM
[3]; [8]
  IC50: 16.4 nM
[3]
  SI IC50(A549)/IC50(DM): 337.72
[4]
  IC50: 2 nM
[5]
  IC50: 5540 nM
[6]
  Stability in SIF, %: 92.9%

## C=CC(=O)Nc1cc(Nc2nccc(C(=O)c3ccc(OC(C)C)cc3)n2)c(OC)cc1N(C)CCN(C)C [EGFR_3365_31, N-(2-((2-(dimethylamino)ethyl)(methyl)amino)-5-((4-(4-isopropoxybenzoyl)pyrimidin-2-yl)amino)-4-methoxyphenyl) acrylamide]
[1]
  Stability in SGF, %: 100.0%
[2]
  CC50 at 72 h: 9490 nM
HepG2 cells
  TI, CC50/IC50: 1293
[3]; [7]
  IC50: 7.34 nM
[3]; [8]
  IC50: 7.3 nM
[3]
  SI IC50(A549)/IC50(DM): 1509.19
[4]
  IC50: 8.3 nM
[5]
  IC50: 11100 nM
[6]
  Stability in SIF, %: 97.2%

## C=CC(=O)Nc1cc(Nc2cc(C(=O)c3ccc(OCCC)cc3)ccn2)c(OC)cc1N(C)CCN(C)C [EGFR_3365_50, N-(2-((2-(dimethylamino)ethyl)(methyl)amino)-4-methoxy-5-((4-(4-propoxybenzoyl)pyridin-2-yl)amino)phenyl)acrylamide]
[1]
  Stability in SGF, %: 100.0%
[2]
  CC50 at 72 h: 12400 nM
HepG2 cells
  TI, CC50/IC50: 262
[3]; [7]
  IC50: 47.5 nM
[3]; [8]
  IC50: 47.5 nM
[3]
  SI IC50(A549)/IC50(DM): 104
[4]
  IC50: 26.9 nM
[5]
  IC50: 4920 nM
[6]
  Stability in SIF, %: 98.5%

## C=CC(=O)Nc1cc(Nc2cc(C(=O)c3ccc(OC)cc3)ccn2)c(OC)cc1N(C)CCN(C)C [EGFR_3365_51, N-(2-((2-(dimethylamino)ethyl)(methyl)amino)-4-methoxy-5-((4-(4-methoxybenzoyl)pyridin-2-yl)amino)phenyl)acrylamide]
[1]
  Stability in SGF, %: 100.0%
[2]
  CC50 at 72 h: 20900 nM
HepG2 cells
  TI, CC50/IC50: 620
[3]; [7]
  IC50: 33.8 nM
[3]; [8]
  IC50: 33.8 nM
[3]
  SI IC50(A549)/IC50(DM): 340
[4]
  IC50: 8.6 nM
[5]
  IC50: 11500 nM
[6]
  Stability in SIF, %: 100.0%

## C=CC(=O)Nc1cc(Nc2cc(C(=O)c3ccc(OCC)cc3)ccn2)c(OC)cc1N(C)CCN(C)C [EGFR_3365_52, N-(2-((2-(dimethylamino)ethyl)(methyl)amino)-5-((4-(4-ethoxybenzoyl)pyridin-2-yl)amino)-4-methoxyphenyl) acrylamide]
[1]
  Stability in SGF, %: 100.0%
[2]
  CC50 at 72 h: 15600 nM
HepG2 cells
  TI, CC50/IC50: 237
[3]; [7]
  IC50: 66.1 nM
[3]; [8]
  IC50: 66.1 nM
[3]
  SI IC50(A549)/IC50(DM): 164
[4]
  IC50: 22.5 nM
[5]
  IC50: 10800 nM
[6]
  Stability in SIF, %: 100.0%

## C=CC(=O)Nc1cc(Nc2cc(C(=O)c3ccc(N4CCN(C)CC4)cc3)ccn2)c(OC)cc1N(C)CCN(C)C [EGFR_3365_55, N-(2-((2-(dimethylamino)ethyl)(methyl)amino)-4-methoxy-5-((4-(4-(4-methylpiperazin-1-yl)benzoyl)pyridin-2-yl)amino)phenyl)acrylamide]
[1]
  Stability in SGF, %: 98.8%
[2]
  CC50 at 72 h: 13300 nM
HepG2 cells
  TI, CC50/IC50: 63
[3]; [7]
  IC50: 211 nM
[3]; [8]
  IC50: 211 nM
[3]
  SI IC50(A549)/IC50(DM): 55
[4]
  IC50: 20.1 nM
[5]
  IC50: 11600 nM
[6]
  Stability in SIF, %: 97.2%

## C=CC(=O)Nc1cc(Nc2cc(C(=O)c3ccc(N4CCCC4)cc3)ccn2)c(OC)cc1N(C)CCN(C)C [EGFR_3365_56, N-(2-((2-(dimethylamino)ethyl)(methyl)amino)-4-methoxy-5-((4-(4-(pyrrolidin-1-yl)benzoyl)pyridin-2-yl)amino)phenyl)acrylamide]
[1]
  Stability in SGF, %: 99.8%
[2]
  CC50 at 72 h: 9510 nM
HepG2 cells
  TI, CC50/IC50: 325
[3]; [7]
  IC50: 29.2 nM
[3]; [8]
  IC50: 29.2 nM
[3]
  SI IC50(A549)/IC50(DM): 156
[4]
  IC50: 29.9 nM
[5]
  IC50: 4540 nM
[6]
  Stability in SIF, %: 96.4%
